In US11485751B2, “Apramycin derivatives” (WAYNE STATE UNIVERSITY, priority 2017, dated 2022):
Converted amounts (≈) assume the structure as drawn. Where two headings read alike, the source gives them in different places.

Key:
[1] = tested on: AG212, Escherichia coli ATCC25922; assay: MIC reference strain AG212; type: cell-based; settings: for MIC: Escherichia coli
Text: (§1) Minimal inhibitory concentrations (MIC) have been determined by broth microdilution assays (CLSI. Methods for Dilution Antimicrobial Susceptibility Tests for Bacteria That Grow Aerobically; Approved Standard—Tenth Edition. CLSI document M07-A10. Wayne, Pa.: Clinical and Laboratory Standards Institute; 2015.).
(§2) Table 4 and 5 show the antibacterial activity of the compounds of the invention against bacterial reference strains (table 4) and against representative clinical isolates (table 5).
(§3) Legend to Tables: GEN, gentamicin; AMK, amikacin; PLZ, plazomicin; APR, apramycin; AG212, Escherichia coli ATCC25922; AG215, Klebsiella pneumonia; AG220, Pseudomonas aeruginosa ATCC27853; AG225, Acinetobacter baumannii pittii; AG290, Enterobacter cloacae; […], Mycobacterium smegmatis. MICs for AG192 have been determined in the presence of 0.5 μg/mL of ampicillin in the medium to mimic the synergistic effect of aminoglycoside and β-lactam antibiotics combination therapy in the treatment of Enterococcus infections in humans.

[2] = tested on: AG215, Klebsiella pneumonia; assay: MIC reference strain AG215; type: cell-based; settings: for MIC: Klebsiella pneumoniae, read-out: MIC AG215 K. pneumonia
Text: as §1, §2, §3

[3] = tested on: AG290, Enterobacter cloacae; assay: MIC reference strain AG290; type: cell-based; settings: for MIC: Enterobacter cloacae, read-out: MIC AG290 E. cloacae
Text: as §1, §2, §3

[4] = tested on: AG220, Pseudomonas aeruginosa ATCC27853; assay: MIC reference strain AG220; type: cell-based; settings: for MIC: Pseudomonas aeruginosa
Text: as §1, §2, §3

[5] = tested on: AG225, Acinetobacter baumannii pittii; assay: MIC reference strain AG225; type: cell-based; settings: for MIC: Acinetobacter baumannii, read-out: MIC AG225 A. baumannii
Text: as §1, §2, §3

ATCC19977 M. abcessus = assay: MIC reference strain ATCC19977; type: cell-based; settings: for MIC: read-out: MIC ATCC19977 M. abcessus
Text: as §1, §2

AG038 MRSA = assay: Antibacterial activity, clinical isolate AG038; type: cell-based; design: unit not given here
Text: as §1, §2

[6] = tested on: AG039 MRSA AAC(6′)-I ANT(4′)-I; assay: Antibacterial activity, clinical isolate AG039; type: cell-based
Text: as §1, §2

[7] = tested on: AG042 MRSA AAC(6′)-I ANT(4′)-I APH(2′); assay: Antibacterial activity, clinical isolate AG042; type: cell-based; design: unit not given here
Text: as §1, §2

AG031 P. aer. APH(3′)-II = assay: Antibacterial activity, clinical isolate AG031; type: cell-based; design: unit not given here
Text: as §1, §2

AG032 P. aer. APH(3′)-II = assay: Antibacterial activity, clinical isolate AG032; type: cell-based; design: unit not given here
Text: as §1, §2

[8] = tested on: AG033 P. aer. APH(3′)-II AAC(6′)-I; assay: Antibacterial activity, clinical isolate AG033; type: cell-based; design: unit not given here
Text: as §1, §2

[9] = tested on: Engineered E. coli pH430 WT; assay: Activity, engineered E. coli pH430 WT; type: cell-based; design: unit not given here; settings: wild type
Text: as §1

[10] = tested on: Engineered E. coli pH424 armA; assay: Activity against G1405-methylated 16S-rRNA, E. coli pH424 armA; type: cell-based
Text: as §1

[11] = tested on: Engineered E. coli pH425 rmtB; assay: Activity against G1405-methylated 16S-rRNA, E. coli pH425 rmtB; type: cell-based
Text: as §1

[12] = tested on: Engineered E. coli pH426 rmtC; assay: Activity against G1405-methylated 16S-rRNA, E. coli pH426 rmtC; type: cell-based
Text: as §1

[13] = tested on: Engineered E. coli pH427 rmtF; assay: Activity against G1405-methylated 16S-rRNA, E. coli pH427 rmtF; type: cell-based
Text: as §1

[14] = tested on: E. coli AG153 AAC(3)-II APH(3′)-II rmtB; assay: Activity against G1405-methylated 16S-rRNA, clinical isolate AG153; type: cell-based; design: unit not given here
Text: as §1

[15] = tested on: K. pneum. AG269 AAC(3)-II AAC(6′)-I rmtB; assay: Activity against G1405-methylated 16S-rRNA, clinical isolate AG269; type: cell-based
Text: as §1

[16] = tested on: Enterob. AG302 AAC(3)-II AAC(6′)-I rmtC; assay: Activity against G1405-methylated 16S-rRNA, clinical isolate AG302; type: cell-based
Text: as §1

[17] = tested on: A baum. AG227 APH(3′)-I armA; assay: Activity against G1405-methylated 16S-rRNA, clinical isolate AG227; type: cell-based
Text: as §1

WT clinical isolates = assay: MIC broth microdilution, WT; type: cell-based; settings: read-out: MIC WT, clinical isolates, IMM Univ. Zurich; wild type
Text: as §1
(§4) Minimal inhibitory concentrations (MICs, […]) against clinical isolates from Institute of Medical Microbiology, Univ. Zurich, and the IC50 values for bacterial, human mitochondrial and human cytosolic ribosomes are indicated.
(§5) Minimal inhibitory concentrations (μg/ml) against clinical isolates from Institute of Medical Microbiology, Univ. Zurich, and the IC50 values for bacterial, human mitochondrial and human cytosolic ribosomes are indicated.
(§6) The Minimal inhibitory concentrations (MICs, μg/ml) against clinical isolates from Institute of Medical Microbiology, Univ Zurich, and the IC50 values for bacterial, human mitochondrial and human cytosolic ribosomes are indicated.

[18] = tested on: clinical isolates carrying AAC(3)-IV; assay: MIC broth microdilution, AAC(3)-IV; type: cell-based; settings: read-out: MIC AAC(3)-IV
Text: as §1, §4, §5, §6

isolates carrying apmA = assay: MIC broth microdilution, apmA; type: cell-based; settings: apmA resistance gene
Text: as §1, with “2015.). […]” for “2015.).”
as §5, §6

bacterial ribosomes = assay: in-vitro translation assay, bacterial ribosomes; type: biochemical
Text: (§7) IC50 values for bacterial, human chimeric, and rabbit reticulocyte ribosomes have been determined by in-vitro translation assays as described previously (Proc. Nat. Ac. Sci USA 2012, 109(27):10984-10989).
as §4

[19] = tested on: human mitochondrial ribosomes; assay: in-vitro translation assay, human mitochondrial (human chimeric) ribosomes; type: biochemical
Text: as §7, §4

[20] = tested on: human cytosolic ribosomes; assay: in-vitro translation assay, human cytosolic ribosomes; type: biochemical
Text: as §7, §4

[21] = tested on: SZ380, Mycobacterium smegmatis; assay: MIC reference strain SZ380; type: cell-based; settings: Mycolicibacterium smegmatis, read-out: MIC SZ380 M. smegmatis
Text: as §1, §2, §3

AG001 E. coli WT = assay: Antibacterial activity, clinical isolate AG001; type: cell-based; design: unit not given here
Text: as §1, §2

AG173 E. coli AAC(3)-IV = assay: Antibacterial activity, clinical isolate AG173; type: cell-based
Text: as §1, §2

AG055 E. coli WT = assay: Antibacterial activity, clinical isolate AG055; type: cell-based; design: unit not given here
Text: as §1, §2

AG003 E. coli AAC(3)-II = assay: Antibacterial activity, clinical isolate AG003; type: cell-based; design: unit not given here
Text: as §1, §2

[22] = ATCC25922, read-out: MIC AG212 E. coli
[23] = ATCC27853, read-out: MIC AG220 P. aeruginosa

Row | Compound | MIC (ATCC19977 M. abcessus) | Antibacterial activity AG038 MRSA (AG038 MRSA) | Antibacterial activity AG031 P. aer. APH(3′)-II (AG031 P. aer. APH(3′)-II) | Activity E. coli pH430 WT [9] | Activity E. coli pH424 armA [10] | Activity E. coli AG153 AAC(3)-II APH(3′)-II rmtB [14] | Activity K. pneum. AG269 AAC(3)-II AAC(6′)-I rmtB [15] | Activity Enterob. AG302 AAC(3)-II AAC(6′)-I rmtC [16] | Activity A baum. AG227 APH(3′)-I armA [17] | MIC [18] | MIC (isolates carrying apmA) | IC50 (bacterial ribosomes) | IC50 [19] | IC50 [20] | MIC [1, 22] | MIC [2] | MIC [3] | MIC [4, 23] | MIC [5] | Antibacterial activity AG001 E. coli WT (AG001 E. coli WT) | also measured
1 | NCC[C@H](O)C(=O)N[C@@H]1C[C@H](N)[C@@H](O[C@H]2O[C@H](CN)[C@@H](O)[C@H](O)[C@H]2O)[C@H](O)[C@H]1O[C@H]1O[C@H](CO)[C@@H](O)[C@H](N)[C@H]1O [AMK, amikacin, reference compound] | 2 µg/mL (≈ 3.42 µM) | 4 | 4 | 1 | >128 | >256 | >256 | >256 | >256 | – | – | – | – | – | – | – | – | – | – | – | MIC ([1]; reference strain ATCC25922, read-out: MIC AG212 E. coli): 2 µg/mL; MIC ([2]; reference strain): 1 µg/mL; MIC ([3]; reference strain): 1 µg/mL; MIC ([4]; ATCC27853, reference strain ATCC27853, read-out: MIC AG220 P. aeruginosa): 2 µg/mL; MIC ([5]; reference strain): 2 µg/mL; Antibacterial activity AG039 MRSA AAC(6′)-I ANT(4′)-I [6]: 2-4; Antibacterial activity AG042 MRSA AAC(6′)-I ANT(4′)-I APH(2′) [7]: 16-32; Antibacterial activity AG032 P. aer. APH(3′)-II (AG032 P. aer. APH(3′)-II): 4; Antibacterial activity AG033 P. aer. APH(3′)-II AAC(6′)-I [8]: 64; Activity E. coli pH425 rmtB [11]: >128; Activity E. coli pH426 rmtC [12]: >128; Activity E. coli pH427 rmtF [13]: >128
2 | CN[C@H]1C(O)C2O[C@H](O[C@@H]3C(N)C[C@@H](NC(=O)C(O)CCN)[C@@H](O)[C@H]3O)C(N)C[C@@H]2O[C@@H]1O[C@H]1OC(CO)[C@@H](N)[C@H](O)C1O (stereo partly shown) [DC191] | 2 µg/mL (≈ 3.12 µM) | 4 | – | 2-4 | 2 | 4 | 2 | 2-4 | 4 | 4 to 8 µg/mL (≈ 6.24 to 12.5 µM) | 8 µg/mL (≈ 12.5 µM) | 0.2 µM | 98 µM | 87 µM | 2 µg/mL | 1 to 2 µg/mL | 2 µg/mL | 4 µg/mL | 8 µg/mL | 8 | MIC (WT clinical isolates): 2 to 4 µg/mL (≈ 3.12 to 6.24 µM); MIC [21]: 0.5 µg/mL; Antibacterial activity AG173 E. coli AAC(3)-IV (AG173 E. coli AAC(3)-IV): 4-8
3 | CNC1C(O)C2O[C@H](O[C@@H]3C(N)C[C@@H](N)[C@@H](O)[C@H]3OCCCO)C(N)C[C@@H]2O[C@@H]1O[C@H]1OC(CO)[C@@H](N)[C@H](O)C1O (stereo partly shown) [DC207] | 8 µg/mL (≈ 13.4 µM) | 32 | 128 | 8 | 4 | 8 | 8 | 8-16 | 16-32 | > 128 µg/mL | > 128 µg/mL | 0.6 µM | > 1000 µM | > 1000 µM | 16 µg/mL | 8 µg/mL | 16 µg/mL | 64 µg/mL | 32 µg/mL | 16 | MIC [21]: 1 µg/mL; Antibacterial activity AG173 E. coli AAC(3)-IV (AG173 E. coli AAC(3)-IV): >128
4 | CNC1C(O)C2O[C@H](O[C@@H]3C(N)C[C@@H](N)[C@@H](O)[C@H]3OCC(O)CO)C(N)C[C@@H]2O[C@@H]1O[C@H]1OC(CO)[C@@H](N)[C@H](O)C1O (stereo partly shown) [DC208] | 2 µg/mL (≈ 3.26 µM) | 8-16 | 32 | 4-8 | 2 | 8 | 4 | 4 | 8 | 64 µg/mL (≈ 104 µM) | > 128 µg/mL | 0.21 µM | 434 µM | > 1000 µM | 8 µg/mL | 4 µg/mL | 4 µg/mL | 16 to 32 µg/mL | 16 µg/mL | 8 | MIC (WT clinical isolates): 4 to 8 µg/mL (≈ 6.52 to 13 µM); MIC [21]: 0.5 µg/mL; Antibacterial activity AG173 E. coli AAC(3)-IV (AG173 E. coli AAC(3)-IV): >64
5 | gentamicin [reference compound] | – | 0.25-0.5 | 0.5 | 0.25 | >128 | >256 | >256 | >256 | >256 | – | – | – | – | – | – | – | – | – | – | 1 | MIC AG212 E. coli ([1]; reference strain ATCC25922): 0.5 µg/mL; MIC AG215 K. pneumonia ([2]; reference strain): 0.25 µg/mL; MIC AG290 E. cloacae ([3]; reference strain): 0.25 µg/mL; MIC AG220 P. aeruginosa ([4]; reference strain ATCC27853): 0.5 to 1 µg/mL; MIC AG225 A. baumannii ([5]; reference strain): 0.5 to 1 µg/mL; MIC ATCC19977 M. abcessus (ATCC19977 M. abcessus; reference strain): 2 to 4 µg/mL; Antibacterial activity AG055 E. coli WT (AG055 E. coli WT): 0.5; Antibacterial activity AG003 E. coli AAC(3)-II (AG003 E. coli AAC(3)-II): 32-64; Antibacterial activity AG039 MRSA AAC(6′)-I ANT(4′)-I [6]: 0.25-0.5; Antibacterial activity AG042 MRSA AAC(6′)-I ANT(4′)-I APH(2′) [7]: 64; Antibacterial activity AG032 P. aer. APH(3′)-II (AG032 P. aer. APH(3′)-II): 0.5; Antibacterial activity AG033 P. aer. APH(3′)-II AAC(6′)-I [8]: 16; Activity E. coli pH425 rmtB [11]: >128; Activity E. coli pH426 rmtC [12]: >128; Activity E. coli pH427 rmtF [13]: >128
